Data on three molecules can be found in patent US20140212487A1, “SOLID DISPERSION FORMULATION OF AN ANTIVIRAL COMPOUND” (priority 2013, published 2014).

Like-named read-outs stand apart in the source and are kept apart here.

The nature of series [1]: Pharmacokinetics after oral administration of tablets in beagle dogs. It is filed as in vivo. More on the design: AUC0-24, mean (RSD) / F / AUC(0-t): dose or concentration left out as unconfirmed. Particulars: pentagastrin pretreatment. Here is the method:
A series of in vivo experiments were conducted to evaluate the potential benefit of the solid dispersion approach relative to conventional formulations, as well as to optimize the solid dispersion by identifying the most beneficial polymer type and relative polymer concentration within the dispersion.
Pentagastrin is a synthetic polypeptide that stimulates the secretion of gastric acid, pepsin, and intrinsic factor. […]

The test system of series [2] is HCV. In words: Antiviral response for dose selection of ledipasvir in HCV infected subjects. It counts as in vivo, Hepatitis C virus. Here is the method: The maximum median HCV RNA log 10 reduction was 3 or greater for all cohorts dosed with >3 mg of ledipasvir. […] Therefore, 30 mg and 90 mg of ledipasvir were selected as the dose for the formulations described herein.

Series [3] in a line: Solubility of ledipasvir in spray dry feed solvents. It counts as physicochemical. Particulars: organic solvent or mixture. Here is the method:
The feed solution was initially evaluated for appropriate solvent with regard to solubility, stability, and viscosity. […] Ethanolic and DCM-based feed stocks were assessed for preparation ease and spray dried at a range of inlet and outlet temperatures to assess the robustness of the spray dry process. Both solvents gave rapid dissolution of ledipasvir and copovidone.

A short description of series [4]: Chemical stability in the ethanolic feed solution.
For series [5] the following is noted: conventional formulation; for Clast, mean: 30 mg single dose.
A short description of another series: clinical. As to conditions: in vivo, 30 mg; for half-life: t1/2, conventional formulation, median; for AUC(0-inf): AUCinf; for AUC(0-inf) / AUC(0-t) / Cmax / Vd/F: conventional formulation; for AUC(0-t): AUClast; for Vd/F: Vz/F.
Series [6] is described as follows: Aqueous solubility screening of ledipasvir in the presence of polymers. It is filed as physicochemical. Here is the method:
Solubility screening experiments were performed for ledipasvir in the presence of a variety of polymers, including hydroxypropyl cellulose, hypromellose, povidone and copovidone. […] Hypromellose, povidone, and copovidone increased the solubility of ledipasvir. […] Thus, in one embodiment, the polymer is selected from hypromellose, povidone, and copovidone.

For series [7], the system named is HCV. In words: Breakthrough (BT) rate of ledipasvir in combination with other therapeutic agents. It is filed as in vivo, Hepatitis C virus. Here is the method: Therefore, the 90 mg dose of ledipasvir may confer a greater antiviral coverage that prevents viral breakthrough.
Where [8] appears, read: 30 mg, high-fat meal versus fasted.
Where [9] appears, read: po, Geometric Least Squares Mean (GLSM), fasted.
Setting [10] is: po, Geometric Least Squares Mean (GLSM), fed.
[11] abbreviates: po, mean, 30 mg single dose, fasted.
Where [12] appears, read: po, mean, 30 mg single dose, fed (high-fat meal).

For `COC(=O)N[C@H](C(=O)N1CC2(CC2)C[C@H]1c1ncc(-c2ccc3c(c2)C(F)(F)c2cc(-c4ccc5nc([C@@H]6[C@H]7CC[C@H](C7)N6C(=O)[C@@H](NC(=O)OC)C(C)C)[nH]c5c4)ccc2-3)[nH]1)C(C)C` [Amorphous Free base], the AUC(0-t) in series [1] (dog, in vivo, read-out: AUC0-24, mean (RSD)) was found to be 8.03 µM·h. For the same molecule, in series [1] (dog, in vivo, read-out: Cmax, mean (RSD)), the peak concentration (Cmax) was found to be 743 nM. For the same molecule, in series [1], the F stood at 71%.
As for `COC(=O)N[C@H](C(=O)N1CC2(CC2)C[C@H]1c1ncc(-c2ccc3c(c2)C(F)(F)c2cc(-c4ccc5nc([C@@H]6[C@H]7CC[C@H](C7)N6C(=O)[C@@H](NC(=O)OC)C(C)C)[nH]c5c4)ccc2-3)[nH]1)C(C)C.O=C(O)C(O)C(O)C(=O)O` [Crystalline D-tartrate], in series [1], the “AUC0-24, mean (RSD)” value is reported as 7623 (44) nM * hr and the F came out at 67%.
Consider `COC(=O)N[C@H](C(=O)N1CC2(CC2)C[C@H]1c1ncc(-c2ccc3c(c2)C(F)(F)c2cc(-c4ccc5nc([C@@H]6[C@H]7CC[C@H](C7)N6C(=O)[C@@H](NC(=O)OC)C(C)C)[nH]c5c4)ccc2-3)[nH]1)C(C)C` [Ledipasvir, (1-{3-[6-(9,9-difluoro-7-{2-[5-(2-methoxycarbonylamino-3-methyl-butyryl)-5-aza-spiro[2.4]hept-6-yl]-3H-imidazol-4-yl}-9H-fluoren-2-yl)-1H-benzoimidazol-2-yl]-2-aza-bicyclo[2.2.1]heptane-2-carbonyl}-2-methyl-propyl)-carbamic acid methyl ester], for which the “maximum median HCV RNA log 10 reduction” value with HCV [2] (all cohorts dosed with >3 mg of ledipasvir) is recorded as not below 3 log 10. For the same molecule, the “fraction of maximal antiviral response (Emax PK/PD model)” value in the series with HCV [2] (exposures after 30 mg dose, genotype 1a HCV infected subjects) was more than 95%. For the same molecule, the solubility in series [3] (dichloromethane (DCM)), in series [3] (ethanol) and in series [3] (methanol) was more than 500 mg/mL each time. In series [4], the “chemical stability in the ethanolic feed solution” value is reported as “good chemical stability”. Also, the results for the “Clast, mean” value in series [5] (fasted) and in series [5] (fed (high-fat meal)) were 6.8 ng/mL and 3.1 ng/mL, respectively. Besides, in series [5] (setting [8]), the “decrease in mean AUCinf” value is recorded as “approximately 45%”. Besides, the “decrease in mean AUClast” value in series [5] (setting [8]) is given as “approximately 45%”. In addition, the “decrease in mean Cmax” value in series [5] (setting [8]) is reported as “approximately 45%”. Moreover, the half-life in “clinical” (30 mg single dose, fasted) is 39.8 h; in “clinical” (30 mg single dose, fed (high-fat meal)), 36.8 h. Also, the Tmax in the series “clinical” (po) is 6 h. The AUC(0-inf) amounted to 2060 ng·h/mL in “clinical” (setting [9]), 1140 ng·h/mL in the series “clinical” (setting [10]), 2420 ng·h/mL in the series “clinical” (setting [11]) and 1180 ng·h/mL in “clinical” (setting [12]). Further, the AUC(0-t) in “clinical” (setting [9]) is 1720 ng·h/mL; in “clinical” (setting [10]), 978 ng·h/mL; in “clinical” (setting [11]), 1990 ng·h/mL; in the series “clinical” (setting [12]), 996 ng·h/mL. In addition, the Cmax was 65.3 ng/mL in “clinical” (setting [9]), 35.9 ng/mL in the series “clinical” (setting [10]), 73.1 ng/mL in the series “clinical” (setting [11]) and 36.5 ng/mL in “clinical” (setting [12]). In addition, the Vd/F in “clinical” (setting [11]) was 877 L; in the series “clinical” (setting [12]) it was 1390 L. Also, the “increase of aqueous solubility of ledipasvir” value is 10 fold in series [6] (pH 5, 0.1% w/w copovidone); 3 fold in series [6] (pH 5, 0.1% w/w hypromellose); 4 fold in series [6] (pH 5, 0.1% w/w povidone). In addition, the “breakthrough (BT) rate” value with HCV [7] (30 mg ledipasvir in combination with other therapeutic agents, 11/33) is listed as 33%; in the series with HCV [7] (90 mg ledipasvir in combination with other therapeutic agents, 9/74), 12%.

Usually Cmax stands for the peak of the concentration-time curve. In general, solubility refers to the concentration that dissolves in the medium under given conditions. Usually half-life stands for how long it takes for the measured level to halve. What is called Tmax is the time at which the peak concentration occurs. Broadly, the AUC(0-inf) is the area under the concentration-time curve extrapolated to infinity. As usually defined, the Vd/F is the apparent distribution volume after extravascular dosing.
